Measurements as given in patent US12595269B2, “Morpholine-like monoamine releasers” (Solvonis Therapeutics Ireland Holdings Limited, priority 2022, dated 2026).

Target: T1, CYP1A2 (Homo sapiens, UniProt P05177)
T1 construct: host or cells: recombinant microsomes
T1 sequence (P05177 1-516): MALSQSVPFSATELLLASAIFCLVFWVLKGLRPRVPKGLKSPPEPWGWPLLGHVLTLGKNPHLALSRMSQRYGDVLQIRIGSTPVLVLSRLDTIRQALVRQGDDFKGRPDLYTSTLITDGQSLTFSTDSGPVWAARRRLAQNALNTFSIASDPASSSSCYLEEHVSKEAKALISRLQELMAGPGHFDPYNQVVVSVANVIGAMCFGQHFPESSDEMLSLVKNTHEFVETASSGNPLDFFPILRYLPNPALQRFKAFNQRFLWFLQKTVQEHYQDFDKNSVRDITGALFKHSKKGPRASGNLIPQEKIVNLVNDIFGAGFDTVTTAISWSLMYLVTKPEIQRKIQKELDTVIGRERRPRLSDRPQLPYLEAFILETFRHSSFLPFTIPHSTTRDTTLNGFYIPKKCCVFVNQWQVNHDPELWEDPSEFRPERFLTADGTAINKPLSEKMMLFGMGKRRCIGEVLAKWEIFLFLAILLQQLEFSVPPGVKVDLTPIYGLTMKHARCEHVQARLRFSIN
Assay: CYP450 inhibition, fluorescent probe, recombinant microsomes: CYP1A2
Type: in vitro ADME
Method: Methods and Procedure: The study was performed in agreement with previously described procedures to assure data integrity and adherence to GLP standards. Briefly, recombinant human CYP450 isoenzymes were used to metabolize pro-fluorescent probe substrates to fluorescent products. IC50 values determined from the effect of test compounds on the metabolism of these probe substrates were then used to determine inhibitory potency against CYP450 isoforms.
The test system was based on a three-step procedure with a “mix and read” format, where PGP-432,TI reaction and reading were performed at 37° C. […] Fluorescence was measured in kinetic mode (1 read/minutes for 10 minutes), and the fluorescence rate was calculated. […]
Microsomes were added to the buffer prior to the substrate addition. […] For fluorescence measurement, 10 μL/well of the test compounds were transferred from the compound plate to the assay plate using Biomek FX and the appropriate protocol. […]
10 μL/well of the cofactor was then added to the assay plate using the Multidrop before placing the assay plate in the plate reader EnVision to measure fluorescence. […]
Next, 10 μL/well from the compound plate was added and incubated for 10 minutes at 37° C. on a plate shaker, while a mixture of Vivid Substrate and Vivid NADP+ in Vivid CYP450 Reaction Buffer was prepared. […] Regarding data analysis, the inhibition effect is expressed as a percentage. […]

SMILES | IC50 (recombinant human CYP1A2) [µM] | IC50 at 10 min (human, recombinant microsomes expressing CYP1A2) [µM]
Clc1ccc(C23CNC(CO2)C3)cc1Cl (centres unmarked) [522A, 1-(3,4-dichlorophenyl)-2-oxa-5-azabicyclo[2.2.1]heptane] | > 50 | –
CNC(C)Cc1ccc2c(c1)OCO2 (centres unmarked) [MDMA, reference compound] | – | 50
